Experimental data as given in ChEMBL document CHEMBL1201862, “PubChem BioAssay data set” (2004).
Activity calls are given as the source filed them.

Assays:
[1] = molecular target: Induced myeloid leukemia cell differentiation protein Mcl-1 (Homo sapiens, UniProt Q07820); assay type: functional
Nonstructural protein 1 = Nonstructural protein 1 (Influenza A virus, UniProt Q194T2); assay type: functional, Influenza A virus (A/California/07/2009(H1N1))
Protein RecA = molecular target: T1, Protein RecA (Mycobacterium tuberculosis, UniProt P9WHJ3); test: Fluorescence Cell-Free Homogeneous Dose Retest to Identify Inhibitors of RecA-Intein Splicing Activity. [Related pubchem assays (depositor defined):AID2097, AID2223, AID489010, AID492950]; assay type: functional
T1 sequence (P9WHJ3 whole entry): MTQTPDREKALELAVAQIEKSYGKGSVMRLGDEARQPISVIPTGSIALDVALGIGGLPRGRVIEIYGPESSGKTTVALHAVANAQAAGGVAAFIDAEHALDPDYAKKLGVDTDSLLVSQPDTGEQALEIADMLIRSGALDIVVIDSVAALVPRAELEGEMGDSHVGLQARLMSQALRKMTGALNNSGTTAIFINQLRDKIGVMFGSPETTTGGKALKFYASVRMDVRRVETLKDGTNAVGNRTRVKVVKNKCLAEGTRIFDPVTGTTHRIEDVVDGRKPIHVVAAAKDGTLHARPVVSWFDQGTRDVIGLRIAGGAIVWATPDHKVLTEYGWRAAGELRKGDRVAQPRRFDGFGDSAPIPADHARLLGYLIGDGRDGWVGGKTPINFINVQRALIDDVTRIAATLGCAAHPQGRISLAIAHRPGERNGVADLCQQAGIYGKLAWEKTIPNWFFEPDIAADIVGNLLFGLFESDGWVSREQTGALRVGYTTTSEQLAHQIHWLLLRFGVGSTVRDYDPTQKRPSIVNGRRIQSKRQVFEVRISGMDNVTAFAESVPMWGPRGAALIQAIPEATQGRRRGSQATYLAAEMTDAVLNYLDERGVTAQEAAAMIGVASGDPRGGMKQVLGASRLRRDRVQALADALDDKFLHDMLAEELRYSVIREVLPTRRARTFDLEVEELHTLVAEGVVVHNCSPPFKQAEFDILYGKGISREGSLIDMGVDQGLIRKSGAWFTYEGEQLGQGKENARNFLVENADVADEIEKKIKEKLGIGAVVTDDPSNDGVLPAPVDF

[2] = molecular target: T2, Replicative DNA helicase DnaB (Mycobacterium tuberculosis, UniProt P9WMR3); test: DnaB intein splicing inhibitors, dose response, biochemical, cell-free fluorescence (AID 449749); assay type: functional
T2 sequence (P9WMR3 whole entry): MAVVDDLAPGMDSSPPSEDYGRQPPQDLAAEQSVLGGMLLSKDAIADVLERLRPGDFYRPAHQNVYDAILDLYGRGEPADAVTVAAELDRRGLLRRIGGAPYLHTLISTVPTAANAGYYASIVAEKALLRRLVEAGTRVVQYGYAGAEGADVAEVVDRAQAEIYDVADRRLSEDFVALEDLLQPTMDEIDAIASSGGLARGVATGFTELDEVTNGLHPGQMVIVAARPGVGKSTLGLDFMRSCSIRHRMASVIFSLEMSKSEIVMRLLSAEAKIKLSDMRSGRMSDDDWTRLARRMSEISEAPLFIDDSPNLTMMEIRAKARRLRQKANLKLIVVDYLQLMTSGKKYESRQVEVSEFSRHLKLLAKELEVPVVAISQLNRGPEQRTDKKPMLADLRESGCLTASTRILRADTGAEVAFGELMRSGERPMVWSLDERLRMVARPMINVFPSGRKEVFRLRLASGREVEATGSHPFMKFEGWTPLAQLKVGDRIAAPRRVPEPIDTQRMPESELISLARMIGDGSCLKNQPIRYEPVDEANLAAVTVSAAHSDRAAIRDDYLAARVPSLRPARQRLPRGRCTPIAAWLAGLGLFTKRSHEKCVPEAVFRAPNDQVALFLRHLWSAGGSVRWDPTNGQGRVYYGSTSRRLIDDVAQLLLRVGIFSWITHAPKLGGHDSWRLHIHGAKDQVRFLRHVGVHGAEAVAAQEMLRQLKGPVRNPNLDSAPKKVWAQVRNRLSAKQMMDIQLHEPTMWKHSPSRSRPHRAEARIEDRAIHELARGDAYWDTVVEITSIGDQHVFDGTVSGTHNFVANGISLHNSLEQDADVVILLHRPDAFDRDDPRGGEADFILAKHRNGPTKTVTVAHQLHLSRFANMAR

[3] = THP-1 cell cytotoxicity, dose response, cytotoxicity control for non-replicating M. tuberculosis project (AID 489025); assay type: functional
[4] = Luminescence Cell-Based Dose Retest to Confirm Inhibitors of Cancer Stem Cells. [Related pubchem assays (depositor defined):AID2717, AID2721]; assay type: functional; settings: Homo sapiens
cells = assay type: functional
[5] = Vero E6 cell cytotoxicity, dose response, cytotoxicity control for non-replicating M. tuberculosis project, secondary assay (AID 492998); assay type: functional, VeroE6; settings: Vero C1008
[6] = microbe, parasite or virus in culture; assay type: functional; settings: Mycobacterium tuberculosis
[7] = molecular target: T3, Microphthalmia-associated transcription factor (Homo sapiens, UniProt O75030); test: reducers of TRPM1 reporter luminescence, concentration series – cell-based, SK-MEL-5, cherry-picked, set 3, MITF inhibitor project, dose response (AID 493073); assay type: functional;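 also: SK-MEL-5 melanoma cells with luciferase driven by the MITF target TRPM1 promoter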
T3 sequence (O75030 whole entry): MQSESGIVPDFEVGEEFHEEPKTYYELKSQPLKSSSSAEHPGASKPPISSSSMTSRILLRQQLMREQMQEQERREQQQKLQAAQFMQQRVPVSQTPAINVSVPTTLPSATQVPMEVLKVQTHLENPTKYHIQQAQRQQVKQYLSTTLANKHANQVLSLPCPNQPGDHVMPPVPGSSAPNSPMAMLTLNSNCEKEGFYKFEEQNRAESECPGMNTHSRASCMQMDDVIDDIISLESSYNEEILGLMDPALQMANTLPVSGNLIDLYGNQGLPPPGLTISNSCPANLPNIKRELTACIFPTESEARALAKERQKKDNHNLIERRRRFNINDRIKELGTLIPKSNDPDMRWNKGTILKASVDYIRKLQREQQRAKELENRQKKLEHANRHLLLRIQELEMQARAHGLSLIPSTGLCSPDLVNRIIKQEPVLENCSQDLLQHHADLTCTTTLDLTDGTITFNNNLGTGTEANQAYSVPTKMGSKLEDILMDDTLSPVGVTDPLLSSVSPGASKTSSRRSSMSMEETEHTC

Coagulation factor XII = molecular target: T4, Coagulation factor XII (Homo sapiens, UniProt P00748); assay type: functional;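 also: activated factor XIIa alpha cleaving a fluorogenic AMC peptide substrate; inhibitor potency from loss of enzyme activity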
T4 sequence (P00748 whole entry): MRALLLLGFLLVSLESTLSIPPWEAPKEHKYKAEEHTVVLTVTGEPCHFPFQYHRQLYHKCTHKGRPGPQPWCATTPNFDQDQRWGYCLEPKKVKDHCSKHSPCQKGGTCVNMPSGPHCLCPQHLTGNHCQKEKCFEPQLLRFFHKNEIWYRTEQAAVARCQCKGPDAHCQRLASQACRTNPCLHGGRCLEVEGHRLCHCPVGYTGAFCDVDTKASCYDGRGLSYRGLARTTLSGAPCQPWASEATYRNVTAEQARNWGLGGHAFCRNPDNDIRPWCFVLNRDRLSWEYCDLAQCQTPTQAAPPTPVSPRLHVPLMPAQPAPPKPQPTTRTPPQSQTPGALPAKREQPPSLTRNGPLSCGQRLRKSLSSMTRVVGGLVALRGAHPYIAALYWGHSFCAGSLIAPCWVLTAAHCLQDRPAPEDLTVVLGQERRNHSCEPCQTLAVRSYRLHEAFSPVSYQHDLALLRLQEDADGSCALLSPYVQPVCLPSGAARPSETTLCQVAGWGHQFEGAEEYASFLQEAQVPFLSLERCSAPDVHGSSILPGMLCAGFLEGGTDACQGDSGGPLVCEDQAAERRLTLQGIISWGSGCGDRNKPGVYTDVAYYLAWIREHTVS

Cytochrome P450 1A2 = molecular target: T5, Cytochrome P450 1A2 (Homo sapiens, UniProt P05177);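 also: PubChem cytochrome P450 panel assay, CYP1A2 panel member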
T5 sequence (P05177 whole entry): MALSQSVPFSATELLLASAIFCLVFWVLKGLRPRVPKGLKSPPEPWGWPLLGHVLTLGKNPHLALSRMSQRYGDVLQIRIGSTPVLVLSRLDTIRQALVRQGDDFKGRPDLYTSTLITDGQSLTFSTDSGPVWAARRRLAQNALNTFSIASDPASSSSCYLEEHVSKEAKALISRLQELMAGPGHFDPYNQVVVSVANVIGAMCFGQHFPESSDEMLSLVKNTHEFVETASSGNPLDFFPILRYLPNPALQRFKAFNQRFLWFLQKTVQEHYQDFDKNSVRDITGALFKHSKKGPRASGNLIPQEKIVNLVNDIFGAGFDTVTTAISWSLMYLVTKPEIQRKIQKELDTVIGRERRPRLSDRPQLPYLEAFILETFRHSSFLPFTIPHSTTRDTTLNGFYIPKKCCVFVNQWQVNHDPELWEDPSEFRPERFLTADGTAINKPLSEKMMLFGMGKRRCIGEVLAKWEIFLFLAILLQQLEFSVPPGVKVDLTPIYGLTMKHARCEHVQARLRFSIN

H4 = test: Luminescence Cell-Based Dose Response HTS to Identify Activators of 5'UTR Stem-Loop Driven Prion Protein mRNA Translation in H4 Neuroglioblastoma Cells. [Related pubchem assays: 1829 (Project Summary), 1814 (Primary HTS)]; assay type: functional; settings: Homo sapiens
[8] = Luminescence Cell-Based Dose Response HTS to Identify Activators of Luciferase Translation or Activity in H4 […] Cells. [Related pubchem assays: 1829 (Project Summary), 1814 (Primary HTS)]; assay type: functional
Cytochrome P450 3A4 = Cytochrome P450 3A4 (Homo sapiens, UniProt P08684);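 also: CYP3A4 tested as one member of a cytochrome P450 panel screen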
Chain of Cytochrome P450 3A4 (P08684 whole entry): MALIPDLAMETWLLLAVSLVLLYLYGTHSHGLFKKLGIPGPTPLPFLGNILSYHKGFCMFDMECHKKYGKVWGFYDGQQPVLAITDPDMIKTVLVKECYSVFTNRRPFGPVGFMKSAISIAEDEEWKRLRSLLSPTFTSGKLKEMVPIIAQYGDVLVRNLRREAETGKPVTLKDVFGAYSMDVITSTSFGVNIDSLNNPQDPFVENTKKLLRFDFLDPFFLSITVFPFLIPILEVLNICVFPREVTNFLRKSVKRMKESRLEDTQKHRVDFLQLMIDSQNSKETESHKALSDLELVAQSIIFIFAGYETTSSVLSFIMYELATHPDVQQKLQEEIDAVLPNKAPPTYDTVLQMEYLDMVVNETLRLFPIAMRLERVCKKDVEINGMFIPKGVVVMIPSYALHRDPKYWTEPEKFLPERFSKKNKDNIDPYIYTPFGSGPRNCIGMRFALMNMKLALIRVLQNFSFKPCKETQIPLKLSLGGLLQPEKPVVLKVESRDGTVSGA

[9] = Luminescence Cell-Based Dose Confirmation HTS to Identify Activators of 5'UTR Stem-Loop Driven Alpha-Synuclein mRNA Translation in H4 Neuroglioblastoma Cells. [Related pubchem assays: 1829 (Project Summary), 1814 (Primary HTS)]; assay type: functional
[10] = Trypanosoma cruzi growth suppression in host cells – NIH3T3 host cells, beta-gal luminescence, confirmation (AID 2044); assay type: functional, cell-based;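 also: intracellular parasites grown in NIH/3T3 mouse fibroblasts as host cells; luminescent beta-galactosidase reporter signal from transgenic T. cruzi replicating inside host cells; inhibitors lower the luminescence signal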
[11] = NIH3T3 cell viability loss – ATP luminescence, mouse fibroblasts, counter-screen, dose response (AID 2010); assay type: functional, cell-based;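 also: cells exposed to compound for about 90 hours before reading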
[12] = molecular target: DNA dC->dU-editing enzyme APOBEC-3G (Homo sapiens, UniProt Q9HC16); assay type: functional;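 also: Dose-response counterscreen measuring inhibition of APOBEC3G DNA deaminase activity, run while confirming APOBEC3A inhibitors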
Chain of DNA dC->dU-editing enzyme APOBEC-3G (Q9HC16 whole entry): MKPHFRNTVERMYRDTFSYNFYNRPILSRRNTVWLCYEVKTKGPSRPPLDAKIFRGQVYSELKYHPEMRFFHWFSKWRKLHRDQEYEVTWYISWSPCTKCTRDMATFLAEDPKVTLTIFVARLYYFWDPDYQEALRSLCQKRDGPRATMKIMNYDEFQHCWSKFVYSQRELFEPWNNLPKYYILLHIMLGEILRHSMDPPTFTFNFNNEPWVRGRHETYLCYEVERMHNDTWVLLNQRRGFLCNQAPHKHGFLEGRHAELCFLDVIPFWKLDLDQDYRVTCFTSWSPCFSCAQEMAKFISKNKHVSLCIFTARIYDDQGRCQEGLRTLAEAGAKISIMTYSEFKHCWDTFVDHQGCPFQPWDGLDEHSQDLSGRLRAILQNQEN

[13] = molecular target: DNA dC->dU-editing enzyme APOBEC-3A (Homo sapiens, UniProt P31941); test: Dose Response confirmation of small molecule APOBEC3A DNA Deaminase Inhibitors via a fluorescence-based single-stranded DNA deaminase assay. [Related pubchem assays (depositor defined):AID493011, AID493024]; assay type: functional
Chain of DNA dC->dU-editing enzyme APOBEC-3A (P31941 whole entry): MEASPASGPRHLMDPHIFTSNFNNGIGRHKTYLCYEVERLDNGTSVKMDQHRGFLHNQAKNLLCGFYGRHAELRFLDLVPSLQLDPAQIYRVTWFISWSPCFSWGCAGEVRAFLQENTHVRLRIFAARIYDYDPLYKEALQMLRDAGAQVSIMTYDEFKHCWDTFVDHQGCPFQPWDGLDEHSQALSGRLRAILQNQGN

[14] = viability of uninfected HEp-2 cells – cell-based, HTS, cytotoxicity control for RSV inhibitor project, dose response (AID 2410); assay type: functional; settings: human respiratory syncytial virus
[15] = viability of PTEN-deleted HCT116 cells – cell-based, HCT116 PTEN knockout, dose response (AID 1047); assay type: functional;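 also: HCT116 colon tumor cells with PTEN knocked out; cells exposed to compound for 60 hours before readout; potency for loss of cell viability measured by luminescence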
[16] = molecular target: T6, Ubiquitin-conjugating enzyme E2 N (Homo sapiens, UniProt P61088); assay type: functional;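 also: Dose-response confirmation in a TR-FRET assay detecting UBC13-driven polyubiquitin chain formation, inhibition measured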
T6 sequence (P61088 whole entry): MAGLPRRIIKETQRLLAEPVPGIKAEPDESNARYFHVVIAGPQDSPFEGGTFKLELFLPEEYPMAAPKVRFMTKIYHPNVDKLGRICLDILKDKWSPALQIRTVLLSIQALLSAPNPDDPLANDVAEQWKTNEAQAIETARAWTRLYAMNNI

[17] = viability of HCT116 lacking mutant beta-catenin – cell-based, human colon tumor, dose response (AID 1045); assay type: functional;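 also: HCT116 colon tumor cells with beta catenin knocked out; cells exposed to compound for 60 hours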

Chain of Nonstructural protein 1 (Q194T2 whole entry): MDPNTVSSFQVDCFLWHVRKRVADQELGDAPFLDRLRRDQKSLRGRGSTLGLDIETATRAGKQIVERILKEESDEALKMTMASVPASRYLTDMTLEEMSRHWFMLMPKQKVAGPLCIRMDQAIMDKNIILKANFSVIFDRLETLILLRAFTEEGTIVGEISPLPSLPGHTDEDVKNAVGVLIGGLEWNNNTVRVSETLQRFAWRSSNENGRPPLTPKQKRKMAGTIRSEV
Chain of Induced myeloid leukemia cell differentiation protein Mcl-1 (Q07820 whole entry): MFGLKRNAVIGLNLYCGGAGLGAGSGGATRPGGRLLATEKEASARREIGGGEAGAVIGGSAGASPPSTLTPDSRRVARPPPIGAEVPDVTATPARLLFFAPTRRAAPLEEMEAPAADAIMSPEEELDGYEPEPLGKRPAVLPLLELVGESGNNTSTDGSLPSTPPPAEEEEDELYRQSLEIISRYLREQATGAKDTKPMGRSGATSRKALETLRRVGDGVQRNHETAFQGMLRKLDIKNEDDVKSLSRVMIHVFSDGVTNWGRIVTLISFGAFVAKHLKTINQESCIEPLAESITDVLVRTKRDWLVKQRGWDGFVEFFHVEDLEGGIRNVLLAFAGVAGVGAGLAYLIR

## c1cncc(C2Nc3cccc4cccc(c34)N2)c1
[1]
  IC50: 9.59 µM (active)
Nonstructural protein 1
  IC50: > 100 µM (active)

## Cc1ccc(C)c(NC(=O)CSc2n[nH]c(-c3ccccn3)n2)c1
Protein RecA
  EC50: > 380 µM (inactive)
[2]
  AC50: 163 µM (active)
Nonstructural protein 1
  IC50: 5.46 µM (active)

## COc1ccccc1OCCN1CSC(=S)N(C)C1
[3]
  CC50: 6.71 µM (active)
[4]
  AC50: 2.4 µM (active)
cells
  IC50: 6.69 µM (active)
[5]
  CC50: 5.83 µM (active)
[6]
  CC50: 7.54 µM (active)
[7]
  AC50: 12.2 µM (active)

## Nc1n[nH]c(SCn2nnc3ccccc3c2=O)n1
Coagulation factor XII
  IC50: > 50 µM (inactive)

## NNC(=O)c1ccc(CSc2nc3ccccc3s2)cc1
Coagulation factor XII
  IC50: > 50 µM (inactive)

## CCc1nnc(NC(=O)c2cc(-c3ccccc3)nn2-c2ccccc2)s1
Cytochrome P450 1A2
  AC50: 15.8 µM (inconclusive)
H4
  EC50: > 120 µM (not active)
[8]
  EC50: 7.74 µM (active)
Cytochrome P450 3A4
  AC50: inconclusive
[9]
  EC50: > 120 µM (not active)

## Cc1ccc(C(=O)C(=O)c2ccc(C)c(N)c2)cc1N
Coagulation factor XII
  IC50: 15.7 µM (active)

## CC(=O)N1CCC2(CC1)CN(C(c1ccccc1)c1ccccc1)C2
Cytochrome P450 3A4
  AC50: inconclusive

## COc1ccc(CNC(=O)C2CSC(=O)C2)cc1 (stereo unspecified)
[10]
  EC50: > 30 µM (not active)
Cytochrome P450 3A4
  AC50: inconclusive
[11]
  EC50: 10.3 µM (active)

## CC1CCCC(C2(O)C(=O)Nc3ccccc32)C1=O (stereo unspecified)
[12]
  IC50: 5.64 µM (active)
[13]
  IC50: 5.46 µM (active)

## CCCN(C/C=C\I)[C@@H]1CCc2cccc(O)c2C1
Cytochrome P450 3A4
  AC50: inconclusive

## CCN1C(NCCOC)=N[C@@H](c2cccc(C(F)(F)F)c2)C(C(=O)OC)=C1C
[12]
  IC50: 1.95 µM (active)
[13]
  IC50: 2.09 µM (active)

## CCCCCCCSc1cc(OC)c(CCN(C)C)cc1OC
[14]
  CC50: 21.3 µM (active)
[15]
  EC50: 9.16 µM (active)
[16]
  IC50: > 20 µM (inactive)
[17]
  EC50: 7.83 µM (active)
Nonstructural protein 1
  IC50: 44.4 µM (active)

## COc1ccc(/C=C2/SC(=S)N(n3c(C)ccc3C)C2=O)cc1
Coagulation factor XII
  IC50: > 50 µM (inactive)

## O=C(NC(=S)N1CCN(Cc2ccc3c(c2)OCO3)CC1)c1ccc(Cl)cc1
cells
  IC50: 18.1 µM (active)
[5]
  CC50: 19.2 µM (active)
